The target of experiment [1] is T1, NAD-dependent protein deacylase sirtuin-5, mitochondrial (Homo sapiens, UniProt Q9NXA8). The experiment is described as follows: Inhibition of human SIRT5.
In experiment [2] the target is T1, NAD-dependent protein deacylase sirtuin-5, mitochondrial. The experiment is described as follows: Inhibition of human SIRT5 by fluorescence based analysis.

T1 sequence (Q9NXA8 whole entry): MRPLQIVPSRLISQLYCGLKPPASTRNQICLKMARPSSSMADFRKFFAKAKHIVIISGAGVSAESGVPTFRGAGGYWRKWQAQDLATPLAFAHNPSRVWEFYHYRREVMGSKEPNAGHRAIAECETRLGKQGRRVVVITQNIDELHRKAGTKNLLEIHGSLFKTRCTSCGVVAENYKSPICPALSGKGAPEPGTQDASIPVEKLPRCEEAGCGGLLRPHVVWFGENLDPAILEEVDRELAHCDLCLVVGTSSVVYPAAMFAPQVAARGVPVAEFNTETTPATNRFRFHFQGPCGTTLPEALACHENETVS

Usually IC50 stands for the point on the concentration scale where inhibition reaches its midpoint. Low values mean higher potency, high ones lower potency. In experiment [1], `N=C(N)NCCC[C@@H]1NC(=O)CCC(=O)NCCCC[C@@H](C(N)=O)NC(=O)[C@H](CCCCNC(=S)NCCC(=O)O)NC1=O` returned an IC50 of 2.2 µM.
For the compound `COC(=O)c1ccc(/C=C2/C(=O)N(c3nc(-c4cccc(OC)c4)cs3)N=C2C)cc1`, the IC50 in experiment [2] came to 15.8 µM.
Same read-out and setting: the figure for `COc1ccc(-c2csc(N3N=C(C)/C(=C\c4ccc(C(=O)O)cc4)C3=O)n2)cc1` is 1.82 µM; for `CC1=NN(c2nc(-c3ccc(Br)cc3)cs2)C(=O)/C1=C/c1ccc(Cl)cc1` it is 12.5 µM; for `CC1=NN(c2nc(-c3ccccc3F)cs2)C(=O)/C1=C/c1ccc(C(=O)O)cc1` it is 4.18 µM.
Still for that read-out and setting: in the case of `CC1=NN(c2nc(-c3ccccc3F)cs2)C(=O)/C1=C/c1ccc(C#N)cc1` it was 13.8 µM.
For `COC(=O)c1ccc(/C=C2/C(=O)N(c3nc(-c4ccc(C(F)(F)F)cc4)cs3)N=C2C)cc1`, the IC50 in experiment [2] came out at 2.84 µM.
The same measure, in the same setting: in the case of `CC1=NN(c2nc(-c3ccc(C(F)(F)F)cc3)cs2)C(=O)/C1=C/c1ccc(C(=O)O)cc1` it was 0.52 µM; in that of `COC(=O)c1ccc(/C=C2/C(=O)N(c3nc(-c4ccc(C#N)cc4)cs3)N=C2C)cc1`, 5.26 µM.
Same read-out and setting: in the case of `CC1=NN(c2nc(-c3ccc(F)cc3)cs2)C(=O)/C1=C/c1ccc(Cl)cc1` it was 6.28 µM.
The same measure, in the same setting: in the case of `COC(=O)c1ccc(/C=C2/C(=O)N(c3nc(-c4cccc(F)c4)cs3)N=C2C)cc1` it was 10.6 µM.
In experiment [2], `COc1ccc(-c2csc(N3N=C(C)/C(=C\c4ccc(Cl)cc4)C3=O)n2)cc1` had an IC50 of 22.6 µM.
The same measure, in the same setting: in the case of `COc1ccccc1-c1csc(N2N=C(C)/C(=C\c3ccc(C(=O)O)cc3)C2=O)n1` it was 5.54 µM.
The same measure, in the same setting: the figure for `COC(=O)c1ccc(/C=C2/C(=O)N(c3nc(-c4ccc(Cl)cc4)cs3)N=C2C)cc1` is 2.56 µM.
Still for that read-out and setting: in the case of `CC1=NN(c2nc(-c3cccc(C)c3)cs2)C(=O)/C1=C/c1ccc(C(=O)O)cc1` it was 4.45 µM.
Consider `COC(=O)c1ccc(/C=C2/C(=O)N(c3nc(-c4cccc(C#N)c4)cs3)N=C2C)cc1`, for which the IC50 in experiment [2] was 16.5 µM.
On the same count and under the same terms, in the case of `CC1=NN(c2nc(-c3ccc(Cl)cc3)cs2)C(=O)/C1=C/c1ccc(Cl)cc1` it was 7.56 µM; in that of `COC(=O)c1ccc(/C=C2/C(=O)N(c3nc(-c4ccccc4F)cs3)N=C2C)cc1`, 12.7 µM.
Same read-out and setting: in the case of `CC1=NN(c2nc(-c3cccc(C#N)c3)cs2)C(=O)/C1=C/c1ccc(C(=O)O)cc1` it was 4.16 µM; in that of `CC1=NN(c2nc(-c3ccc(F)cc3)cs2)C(=O)/C1=C/c1ccc(C(=O)O)cc1`, 0.85 µM.
Turning to `COC(=O)c1ccc(/C=C2/C(=O)N(c3nc(-c4ccccc4OC)cs3)N=C2C)cc1`, it took 20.6 µM to reach half-maximal inhibition in experiment [2] (IC50).
Still for that read-out and setting: in the case of `COC(=O)c1ccc(/C=C2/C(=O)N(c3nc(-c4ccc(C)cc4)cs3)N=C2C)cc1` it was 6.54 µM.
`COC(=O)c1ccc(/C=C2/C(=O)N(c3nc(-c4ccc(O)cc4)cs3)N=C2C)cc1` came in with an IC50 in experiment [2] of 12.8 µM.
Same read-out and setting: the figure for `COC(=O)c1ccc(/C=C2/C(=O)N(c3nc(-c4ccc(F)cc4)cs3)N=C2C)cc1` is 5.83 µM.
For `COc1ccc(-c2csc(N3N=C(C)/C(=C\c4ccc(C)cc4)C3=O)n2)cc1`, in experiment [2], the IC50 was 36.8 µM.
Consider `COc1cccc(-c2csc(N3N=C(C)/C(=C\c4ccc(C(=O)O)cc4)C3=O)n2)c1`, for which, in experiment [2], half-maximal inhibition (IC50) required 3.08 µM.
Still for that read-out and setting: the figure for `COC(=O)c1ccc(/C=C2/C(=O)N(c3nc(-c4cccc(C)c4)cs3)N=C2C)cc1` is 20.5 µM; for `CC1=NN(c2nc(-c3ccc(C)cc3)cs2)C(=O)/C1=C/c1ccc(C(=O)O)cc1` it is 1.28 µM; for `COC(=O)c1ccc(/C=C2/C(=O)N(c3nc(-c4ccc(OC)cc4)cs3)N=C2C)cc1` it is 10.2 µM.
The same measure, in the same setting: the figure for `CC1=NN(c2nc(-c3ccc(O)cc3)cs2)C(=O)/C1=C/c1ccc(C(=O)O)cc1` is 1.92 µM.
Same read-out and setting: the figure for `CC1=NN(c2nc(-c3cccc(F)c3)cs2)C(=O)/C1=C/c1ccc(C(=O)O)cc1` is 1.86 µM; for `CC1=NN(c2nc(-c3ccc(C#N)cc3)cs2)C(=O)/C1=C/c1ccc(C(=O)O)cc1` it is 1.05 µM; for `COC(=O)c1ccc(/C=C2/C(=O)N(c3nc(-c4ccc(Br)cc4)cs3)N=C2C)cc1` it is 4.36 µM.
In the case of `COC(=O)c1ccc(/C=C2/C(=O)N(c3nc(-c4cccc(C(F)(F)F)c4)cs3)N=C2C)cc1`, the IC50 in experiment [2] came to 2.28 µM.
In the case of `CC1=NN(c2nc(-c3ccc(Br)cc3)cs2)C(=O)/C1=C/c1ccc(C(=O)O)cc1`, the IC50 in experiment [2] is 1.72 µM.
